In patent US20240166626A1, “Compounds and Methods for Preventing, Treating, or Ameliorating Airway Disease” (THOMAS JEFFERSON UNIVERSITY, priority 2021, published 2024):

Assays:
mouse airway tissue = assay: Measurement of airway contractility in ex vivo mouse lung tissue slices
Experimental: FIGS. 4A-4F: DFPQ inhibits internalization of the β2AR and protects from agonist induced desensitization in cell and tissue models. FIG. 4A: Effect of DFPQ on agonist-promoted internalization of the β2AR. HEK 293 cells stably expressing FLAG-β2AR were pre-incubated with 0.1% DMSO or 10 μM DFPQ for 30 min and then stimulated with the indicated concentrations of ISO for up to 60 min. Cells were fixed and receptor surface expression was measured by ELISA. […] Cells were lysed and cAMP production was measured by ELISA. […] FIG. 4C: Mouse airway tissue were contracted with 1 μM methacholine for 5 min and then incubated overnight with 1 μM ISO±1 μM DFPQ. […] Airway contractility was measured by luminal area of bronchioles by microscopy at various times. […]
(§1) Cell culture GLOSENSOR™ cells (Promega) were maintained in Dulbecco's modified Eagle's medium (DMEM) containing 10% fetal bovine serum (FBS) and 200 μg/ml Hygromycin B. […]® ADRB2 cells (DiscoveRx) were maintained with the AssayComplete™ Cell Culture kit (DiscoveRx catalog #92-3107G). […] Cells were read every three minutes for 18 minutes on a PolarStar Optima plate reader (BMG) to establish peak signal. ISO was added to each well to a final concentration of 1 μM, and luminescence was determined in kinetic mode at room temperature (23-25° C.). […] Luminescence was determined at room temperature (23-25° C.) on a PolarStar Optima plate reader (BMG). […]

HASM cells = assay: Human airway smooth muscle cell scratch (migration) assay; type: cell-based; details: 1 μM DFPQ, PDGF, 24 hours, FIG. 4F
Experimental: FIGS. 4A-4F: DFPQ inhibits internalization of the β2AR and protects from agonist induced desensitization in cell and tissue models. FIG. 4A: Effect of DFPQ on agonist-promoted internalization of the β2AR. HEK 293 cells stably expressing FLAG-β2AR were pre-incubated with 0.1% DMSO or 10 μM DFPQ for 30 min and then stimulated with the indicated concentrations of ISO for up to 60 min. Cells were fixed and receptor surface expression was measured by ELISA. […] Cells were lysed and cAMP production was measured by ELISA. […] FIG. 4C: Mouse airway tissue were contracted with 1 μM methacholine for 5 min and then incubated overnight with 1 μM ISO±1 μM DFPQ. Airway slices were washed, re-contracted with methacholine, and incubated with ISO for 1 hour (n=4 bronchioles). Airway contractility was measured by luminal area of bronchioles by microscopy at various times. FIG. 4D: Bar graphs represent normalized ISO-promoted relaxation from methacholine contraction on day 2 of treatment at the 25 min timepoint from 4 tracheal rings. *, p<0.05 FIG. 4E: HASM cells were scratched and incubated overnight in PDGF containing serum free media. Cells were imaged to evaluate migration into the scratched area. FIG. 4F: Densitometric analysis of migration into scratched area (n=3 experiments). ***, p<0.001; **, p<0.01
as §1, with “C.). Response was analyzed relative to forskolin (7 μM) and alprenolol (1 μM) as positive and negative controls, respectively.” for “C.).”

Fc1ccc(Nc2nc(NC3CCCCC3)c3ccccc3n2)cc1F [DFPQ, N^4-cyclohexyl-N^2-(3,4-difluorophenyl)quinazoline-2,4-diamine]
ISO mediated reversal of airway contraction on day 2 (mouse airway tissue; overnight 1 μM ISO + 1 μM DFPQ, relative to control, FIG. 4C): largely preserved | protection from desensitization (mouse airway tissue; up to 25 minutes post ISO challenge on day 2, FIG. 4D): significant protection from desensitization | effect on β-agonist (SAL or ISO) reduction of HASM migration (HASM cells): significantly enhanced
